{"source": "patent US10172814B2", "about": "“Substituted pyridyl-cycloalkyl-carboxylic acids, compositions containing them and medical uses thereof” (BAYER PHARMA AKTIENGESELLSCHAFT, priority 2014, dated 2019)", "biological_target": "human PTGES (Homo sapiens (Human), UniProt O14684)", "sequence (O14684 whole entry)": "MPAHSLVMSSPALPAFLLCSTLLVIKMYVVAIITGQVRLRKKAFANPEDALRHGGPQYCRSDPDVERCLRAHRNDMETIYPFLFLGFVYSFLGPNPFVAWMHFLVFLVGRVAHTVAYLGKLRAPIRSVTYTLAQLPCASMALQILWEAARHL", "test": "Human PTGES biochemical enzyme inhibition assay (conversion of PGH2 to PGE2, TR-FRET)", "settings": "Enzymatic conversion of PGH2 to PGE2; read-out: Human PTGES IC50", "outline": "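FLAG-tagged human PTGES from Hi-5 insect cells preincubated 15–20 min with compound in pH 7.2 phosphate buffer with 2.5 mM reduced glutathione; reaction started with 8 nM PGH2 final, stopped with SnCl2/KF.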"}
{"smiles": "Cc1c(CCC(=O)O)cccc1NC(=O)C(c1ccc(-c2cncc(C(C)(C)O)c2)cc1)C1CCCC1", "note": "(racemic) [Example 9, (R/S) 3-{3-[(Cyclopentyl{4-[5-(2-hydroxypropan-2-yl)pyridin-3-yl]phenyl}acetyl)amino]-2-methylphenyl}propanoic acid]", "values": [{"measurement": "IC50", "result": 3560, "unit": "nM"}]}
{"smiles": "Cc1c(NC(=O)C(c2ccc(-c3cncc(Cl)c3)c(F)c2)C2CCC2)cccc1C(C)CC(=O)O", "note": "(single isomer, unassigned; stereoisomer 1) [Example 150, 3-[3-({[4-(5-Chloropyridin-3-yl)-3-fluorophenyl](cyclobutyl)acetyl}amino)-2-methylphenyl]butanoic acid, Stereoisomer 1]", "values": [{"measurement": "IC50", "result": 2620, "unit": "nM"}]}
{"smiles": "Cc1ncc(-c2ccc(C(C(=O)Nc3cccc(C(C)CC(=O)O)c3C)C3CCCC3)cc2F)cc1Cl", "note": "(single isomer, unassigned; stereoisomer 2) [Example 122, 3-[3-({[4-(5-Chloro-6-methylpyridin-3-yl)-3-fluorophenyl](cyclopentyl)acetyl}amino)-2-methylphenyl]butanoic acid, Stereoisomer 2]", "values": [{"measurement": "IC50", "result": 22.8, "unit": "nM"}]}
{"smiles": "Cc1ncc(-c2ccc(C(C(=O)Nc3cccc(CCC(=O)O)c3C)C3CCC3)cc2F)cc1C(F)(F)F", "note": "(single isomer, unassigned; (-)) [Example 206, (−) 3-{3-[(cyclobutyl{3-fluoro-4-[6-methyl-5-(trifluoromethyl)pyridin-3-yl]phenyl}acetyl)amino]-2-methylphenyl}propanoic acid, Single Enantiomer]", "values": [{"measurement": "IC50", "result": 10.1, "unit": "nM"}]}
{"smiles": "Cc1c(NC(=O)C(c2ccc(-c3cncc(C(F)(F)F)c3)c(F)c2)C2CCC2)cccc1C(C)CC(=O)O", "note": "(single isomer, unassigned; stereoisomer 2) [Example 148, 3-{3-[(Cyclobutyl{3-fluoro-4-[5-(trifluoromethyl)pyridin-3-yl]phenyl}acetyl)amino]-2-methylphenyl}butanoic acid, Stereoisomer 2]", "values": [{"measurement": "IC50", "result": 24.2, "unit": "nM"}]}
{"smiles": "Cc1c(CCC(=O)O)cccc1NC(=O)C(c1ccc(-c2cncc(CF)c2)cc1)C1CCCC1", "note": "(racemic) [Example 30, (R/S) 3-{3-[(Cyclopentyl{4-[5-(fluoromethyl)pyridin-3-yl]phenyl}acetyl)amino]-2-methylphenyl}propanoic acid]", "values": [{"measurement": "IC50", "result": 188, "unit": "nM"}]}
{"smiles": "Cc1ncc(-c2ccc(C(C(=O)Nc3cccc(CCC(=O)O)c3C)C3CCCC3)cc2F)cc1CC(C)C", "note": "(single isomer, unassigned; (-)) [Example 198, (−) 3-[3-({cyclopentyl[3-fluoro-4-(5-isobutyl-6-methylpyridin-3-yl)phenyl]acetyl}amino)-2-methylphenyl]propanoic acid, Single Enantiomer]", "values": [{"measurement": "IC50", "result": 20, "unit": "nM"}]}
{"smiles": "Cc1c(NC(=O)C(c2ccc(-c3cncc(Cl)c3)cc2)C2CCC2)cccc1C(C)CC(=O)O", "note": "(single isomer, unassigned; stereoisomer 4) [Example 139]", "values": [{"measurement": "IC50", "result": 107, "unit": "nM"}]}
{"smiles": "Cc1cc(-c2ccc(C(C(=O)Nc3cccc(C(C)CC(=O)O)c3C)C3CCCC3)cc2)cnc1C", "note": "(mixture of isomers) [Example 93, (3R/S)-3-[3-({(2R/S)-2-Cyclopentyl-2-[4-(5,6-dimethylpyridin-3-yl)phenyl]acetyl}amino)-2-methylphenyl]butanoic acid]", "values": [{"measurement": "IC50", "result": 35.6, "unit": "nM"}]}
{"smiles": "Cc1c(CCC(=O)O)cccc1NC(=O)C(c1ccc(-c2cncc(C(F)(F)F)c2)cc1)C1CCCCC1", "note": "(racemic) [Example 66, (R/S) 3-{3-[(Cyclohexyl{4-[5-(trifluoromethyl)pyridin-3-yl]phenyl}acetyl)amino]-2-methylphenyl}propanoic acid]", "values": [{"measurement": "IC50", "result": 53.9, "unit": "nM"}]}
{"smiles": "Cc1c(CCC(=O)O)cc(F)cc1NC(=O)C(c1ccc(-c2cncc(C(F)(F)F)c2)cc1)C1CCCC1", "note": "(racemic) [Example 167, (R/S) 3-{3-[(cyclopentyl{4-[5-(trifluoromethyl)pyridin-3-yl]phenyl}acetyl)amino]-5-fluoro-2-methylphenyl}propanoic acid]", "values": [{"measurement": "IC50", "result": 295, "unit": "nM"}]}
{"smiles": "CCOc1cncc(-c2ccc(C(C(=O)Nc3cccc(CCC(=O)O)c3C)C3CCCCC3)cc2)c1", "note": "(racemic) [Example 67, (R/S) 3-[3-({Cyclohexyl[4-(5-ethoxypyridin-3-yl)phenyl]acetyl}amino)-2-methylphenyl]propanoic acid]", "values": [{"measurement": "IC50", "result": 328, "unit": "nM"}]}
{"smiles": "Cc1c(NC(=O)[C@@H](c2ccc(-c3cncc(Cl)c3)cc2)C2CCCC2)cccc1C(O)CC(=O)O", "note": "(stereo partly drawn) [Example 193, 3-[3-({(2R)-2-[4-(5-chloropyridin-3-yl)phenyl]-2-cyclopentylacetyl}amino)-2-methylphenyl]-3-hydroxypropanoic acid]", "values": [{"measurement": "IC50", "result": 232, "unit": "nM"}]}
{"smiles": "Cc1c(CCC(=O)O)cccc1NC(=O)C(c1ccc(-c2ccc(F)nc2)cc1)C1CCCC1", "note": "(racemic) [Example 19, (R/S) 3-[3-({Cyclopentyl[4-(6-fluoropyridin-3-yl)-phenyl]acetyl}amino)-2-methylphenyl]propanoic acid]", "values": [{"measurement": "IC50", "result": 552, "unit": "nM"}]}
{"smiles": "CCc1cncc(-c2ccc(C(C(=O)Nc3cccc(C(CC)CC(=O)O)c3C)C3CCCC3)cc2F)c1", "note": "(single isomer, unassigned) [Example 195, 3-[3-({cyclopentyl[4-(5-ethylpyridin-3-yl)-3-fluorophenyl]acetyl}amino)-2-methylphenyl]pentanoic acid, Single Enantiomer]", "values": [{"measurement": "IC50", "result": 10.5, "unit": "nM"}]}
{"smiles": "Cc1c(CC(C)C(=O)O)cccc1NC(=O)C(c1ccc(-c2cncc(C(F)(F)F)c2)cc1)C1CCCC1", "note": "(single isomer, unassigned; stereoisomer 3) [Example 71, 3-{3-[(Cyclopentyl{4-[5-(trifluoromethyl)pyridin-3-yl]phenyl}acetyl)amino]-2-methylphenyl}-2-methylpropanoic acid, Stereoisomer 3]", "values": [{"measurement": "IC50", "result": 15900, "unit": "nM"}]}
{"smiles": "COc1ncccc1-c1ccc(C(C(=O)Nc2cccc(CCC(=O)O)c2C)C2CCCC2)cc1", "note": "(racemic) [Example 20, (R/S) 3-[3-({Cyclopentyl[4-(2-methoxypyridin-3-yl)-phenyl]acetyl}amino)-2-methylphenyl]propanoic acid]", "values": [{"measurement": "IC50", "result": 2550, "unit": "nM"}]}
{"smiles": "CCC(CC(=O)O)c1cccc(NC(=O)C(c2ccc(-c3cncc(F)c3)cc2)C2CCCC2)c1C", "note": "(single isomer, unassigned; stereoisomer 4) [Example 106, 3-[3-({[4-(5-Fluoropyridin-3-yl)phenyl](cyclopentyl)acetyl}amino)-2-methylphenyl]pentanoic acid, Stereoisomer 4]", "values": [{"measurement": "IC50", "result": 156, "unit": "nM"}]}
{"smiles": "CCOc1cncc(-c2ccc(C(C(=O)Nc3cccc(CCC(=O)O)c3C)C3CCCC3)cc2)c1", "note": "(racemic) [Example 8, (R/S) 3-[3-({Cyclopentyl[4-(5-ethoxypyridin-3-yl)phenyl]acetyl}amino)-2-methylphenyl]propanoic acid]", "values": [{"measurement": "IC50", "result": 160, "unit": "nM"}]}
{"smiles": "Cc1c(NC(=O)C(c2ccc(-c3cncc(Cl)c3)c(F)c2)C2CCCC2)cccc1C(C)CC(=O)O", "note": "(single isomer, unassigned; stereoisomer 2) [Example 127, 3-[3-({[4-(5-Chloropyridin-3-yl)-3-fluorophenyl](cyclopentyl)acetyl}amino)-2-methylphenyl]butanoic acid, Stereoisomer 2]", "values": [{"measurement": "IC50", "result": 31.5, "unit": "nM"}]}
{"smiles": "Cc1c(NC(=O)C(c2ccc(-c3cncc(C(F)(F)F)c3)cc2)C2CCCC2)cccc1OCC(=O)O", "note": "(racemic) [Example 33, (R/S) {3-[(Cyclopentyl{4-[5-(trifluoromethyl)pyridin-3-yl]phenyl}acetyl)amino]-2-methylphenoxy}acetic acid]", "values": [{"measurement": "IC50", "result": 14.3, "unit": "nM"}]}
{"smiles": "Cc1cc(C(C(=O)Nc2cccc(CCC(=O)O)c2C)C2CCCC2)c(Cl)cc1-c1cncc(C(F)(F)F)c1", "note": "(racemic) [Example 173, (R/S) 3-(3-{[{2-chloro-5-methyl-4-[5-(trifluoromethyl)pyridin-3-yl]phenyl}(cyclopentyl)acetyl]amino}-2-methylphenyl)propanoic acid]", "values": [{"measurement": "IC50", "result": 1240, "unit": "nM"}]}
{"smiles": "Cc1c(CCC(=O)O)cc(F)cc1NC(=O)C(c1ccc(-c2cncc(Cl)c2)cc1)C1CCCC1", "note": "(racemic) [Example 168, (R/S) 3-[3-({[4-(5-chloropyridin-3-yl)phenyl](cyclopentyl)acetyl}amino)-5-fluoro-2-methylphenyl]propanoic acid]", "values": [{"measurement": "IC50", "result": 1190, "unit": "nM"}]}
{"smiles": "Cc1c(CCC(=O)O)cccc1NC(=O)C(c1ccc(-c2cncc(C(F)(F)F)c2)cc1F)C1CCCC1", "note": "(racemic) [Example 53, (R/S) 3-{3-[(Cyclopentyl{2-fluoro-4-[5-(trifluoromethyl)pyridin-3-yl]phenyl}acetyl)amino]-2-methylphenyl}propanoic acid]", "values": [{"measurement": "IC50", "result": 53.3, "unit": "nM"}]}
{"smiles": "Cc1c(CCC(=O)O)cccc1NC(=O)[C@@H](c1ccc(-c2cncc(OC(C)C)c2)cc1)C1CCCC1", "note": "[Example 190, 3-(3-{[(2R)-2-cyclopentyl-2-{4-[5-(propan-2-yloxy)pyridin-3-yl]phenyl}acetyl]amino}-2-methylphenyl)propanoic acid]", "values": [{"measurement": "IC50", "result": 36.1, "unit": "nM"}]}
{"smiles": "COc1c(CCC(=O)O)cccc1NC(=O)C(c1ccc(-c2cncc(C(F)(F)F)c2)cc1)C1CCCC1", "note": "(centres unmarked) [Example 213, 3-{3-[(cyclopentyl{4-[5-(trifluoromethyl)pyridin-3-yl]phenyl}acetyl)amino]-2-methoxyphenyl}propanoic acid]", "values": [{"measurement": "IC50", "result": 328, "unit": "nM"}]}
{"smiles": "Cc1c(CCC(=O)O)cccc1NC(=O)C(c1ccc(-c2ccc(C(F)(F)F)nc2)cc1)C1CCCC1", "note": "(racemic) [Example 4, (R/S) 3-{3-[(Cyclopentyl{4-[6-(trifluoromethyl)pyridin-3-yl]phenyl}acetyl)amino]-2-methylphenyl}propanoic acid]", "values": [{"measurement": "IC50", "result": 1320, "unit": "nM"}]}
{"smiles": "Cc1ncc(-c2cc(F)c(C(C(=O)Nc3cccc(CCC(=O)O)c3C)C3CCCC3)cc2F)cc1Cl", "note": "(racemic) [Example 180, (R/S) 3-[3-({[4-(5-chloro-6-methylpyridin-3-yl)-2,5-difluorophenyl](cyclopentyl)acetyl}amino)-2-methylphenyl]propanoic acid]", "values": [{"measurement": "IC50", "result": 66.4, "unit": "nM"}]}
{"smiles": "CCc1cncc(-c2ccc(C(C(=O)Nc3cccc(C(CC(=O)O)C4CC4)c3C)C3CCCC3)cc2)c1", "note": "(mixture of isomers) [Example 114, (3R/S)-3-[3-({(2R/S)-2-cyclopentyl-2-[4-(5-ethylpyridin-3-yl)phenyl]acetyl}amino)-2-methylphenyl]-3-cyclopropylpropanoic acid]", "values": [{"measurement": "IC50", "result": 29.5, "unit": "nM"}]}
